Data: PMC4169866 (Investigational New Drugs, 2014)

Key:
pRb (pSer780) colo-205 = assay: Cellular assay for inhibition of p-Rb (Ser780), colo-205 (Acumen); assay type: cell-based; conditions: Homo sapiens, Fig. 2a, as given in discussion
Description: (§1) Details for the cellular assays are provided in the supplemental materials. Briefly, image-based assays (Acumen Explorer, TPP LabTech) were used for compound screening. […] After treatment, the cells were washed, fixed and stained with antibodies to detect phosphoproteins and Propidium Iodide to monitor DNA content. The plates were then analyzed on an Acumen Explorer (TTP Labtech). The IC50 and EC50 values are determined by curve fitting to a 4-parameter logistic for each output using ACTIVITY BASE™ software.
(§2) Fixed cells are blocked with 1% bovine serum albumin (BSA, Amersham cat # RPN412V) for 30 minutes. […] Image analysis is based on cellular fluorescent signals for identifying cells in different subpopulations. Assay outputs are a percentage of each identified subpopulations; percent phosphoRB positive, percent 2 N, and percent 4 N. The IC50 and EC50 values are determined by curve fitting to a 4-parameter logistic for each output using ACTIVITY BASE™.

TRKA = target: T1, TRKA (Homo sapiens, UniProt P04629); assay: Millipore (UBI) kinase panel TRKA; assay type: biochemical; conditions: generated at millipore (UBI) kinase panel
T1 construct: purchased Millipore/UBI

PLK3 = PLK3 (Homo sapiens, UniProt Q9H4B4); assay: Biochemical kinase profiling PLK3
Aurora A = Aurora A (Homo sapiens, UniProt O14965); assay: Biochemical kinase profiling Aurora A
Aurora B = Aurora B (Homo sapiens, UniProt Q96GD4); assay: Biochemical kinase profiling Aurora B
pERK HCT116 = assay: pERK inhibition, HCT116; assay type: cell-based; conditions: Homo sapiens, HCT-116; read-out: pERK inh. HCT116 IC50
[1] = test system: Colo-205 colorectal xenografts; assay: Subcutaneous colo-205 xenograft antitumor activity; assay type: in vivo, mice; conditions: colo-205 xenografts
Description: (§3) All animal studies were performed in accordance with American Association for Laboratory Animal Care institutional guidelines, and all protocols were approved by the Eli Lilly and Company Animal Care and Use Committee. Tumor cell lines were grown, harvested, and resuspended in a 1:1 mixture of serum-free media and matrigel (BD Biosciences), and 5 × 10^6 cells were injected subcutaneously in the rear flank of 5-to-6-week-old CD1 nu/nu female mice (Charles River Laboratories for MV4-11, mice from Harlan Laboratories for others).
When the mean tumor volume was approximately 150–300 mm^3, animals were randomized by tumor volume and the compound was administered. […] Gemcitabine was formulated in saline and administered by intraperitoneal injection. Tumor volume and body weight were measured twice weekly. When tumors were collected for biomarker analysis, the animals were asphyxiated with CO2 and the xenograft tumors excised, flash frozen in liquid nitrogen, and stored at −80 °C until analyzed. For analysis, tumor volume data were transformed to a log scale to equalize variance across time and treatment groups. The log volume data were analyzed with a 2-way repeated measures analysis of variance by time and treatment using the MIXED procedure in SAS software (version 9.2). The correlation model for the repeated measures was spatial power. Treated groups are compared to the control group at each time point.

DRAK1 = target: T2, DRAK1 (Homo sapiens, UniProt Q9UEE5); assay: Millipore (UBI) kinase panel DRAK1; assay type: biochemical; conditions: generated at millipore (UBI) kinase panel
T2 construct: purchased Millipore/UBI

cRaf = cRaf (Homo sapiens, UniProt P04049); assay: Biochemical kinase profiling cRaf
bRaf = bRaf (Homo sapiens, UniProt P15056); assay: Biochemical kinase profiling bRaf
[2] = phase 1 study in advanced cancer patients ref 38, 39; cited from earlier work
HIPK2 = target: T3, HIPK2 (Homo sapiens, UniProt Q9H2X6); assay: Millipore (UBI) kinase panel HIPK2; assay type: biochemical; conditions: generated at millipore (UBI) kinase panel
T3 construct: purchased Millipore/UBI

[3] = Tolerability in colo-205 xenograft-bearing mice; assay type: in vivo; conditions: 56-day schedules
Description: as §3, with “others). Tumor volume was estimated by using the formula: vol = l × w^2 × […], where one and w are perpendicular measured diameters, and one is greater than or equal to w.” for “others).”
When the mean tumor volume was approximately 150–300 mm^3, animals were randomized by tumor volume and the compound was administered. […]. Gemcitabine was formulated in saline and administered by intraperitoneal injection. Tumor volume and body weight were measured twice weekly. When tumors were collected for biomarker analysis, the animals were asphyxiated with CO2 and the xenograft tumors excised, flash frozen in liquid nitrogen, and stored at −80 °C until analyzed. […] The log volume data were analyzed with a 2-way repeated measures analysis of variance by time and treatment using the MIXED procedure in SAS software (version 9.2). […]

U2OS cells = assay: DNA content (cell cycle) in U2OS phenotypic assay; assay type: cell-based, human
Description: U20S cells are cultured in McCoy's 5A modified media (Invitrogen), supplemented with 10% FBS and plated in 96-well, flat-bottom plates at a density of 5,000 cells/well for incubation overnight. Compounds in DMSO stock solution are diluted serially 1:3 in McCoy's 5A media and incubated with cells for 16 hours for multiplexing pCTD/DNA content readouts. Cells are fixed with Prefer (Anatech LTD, MI) for 30 minutes at room temperature and permeated with 0.1% Triton-X 100 in PBS or cold methanol (-20°C) for 15 minutes, respectively. After blocking with 1% BSA/PBS for 30 min, cells are incubated with primary antibody (CTD p-Ser2, Covance) at 1:1000 dilution in 1% BSA/PBS containing 50 ug/ml RNAse ([…], Sigma) at 4°C overnight. […] Table S1 and Figure S1.

colo-205 cells = assay: DNA content / G1 arrest assay, colo-205 (Acumen); assay type: cell-based, human; conditions: Colo-205 cells
Description: as §1, §2

[4] = test system: Rb-deficient MDA-MB-468 breast cancer cells; assay: Flow cytometry cell cycle distribution, MDA-MB-468; assay type: cell-based, human; conditions: MDA-MB-468, concentrations up to 2,500 nmol/L
Description: Flow cytometry was used to determine cell cycle distribution in cell lines. Cells were cultured in growth media under subconfluent conditions and treated with indicated concentrations of compound solubilized in DMSO for 24 hours at 37°C/5% CO2. After treatment, cells were collected, washed once with 4° C PBS, and fixed with 70% ethanol/30% water at -20 °C for 30 minutes. Cells were then collected by centrifugation, washed once with PBS, and stained for 30 minutes at room temperature by the addition of 1 mL of propidium iodide/Triton X-100 staining solution (20µg/mL of propidium iodide, 200µg/mL DNase-free RNase A, 0.1%(v/v) Triton x-100). Cell cycle analysis was performed using a Cytomics™ FC500 (Coulter); data were analyzed using ModFit v3.1 software (Verity).

pERK A375 = assay: pERK inhibition, A375; assay type: cell-based; conditions: Homo sapiens, A-375; read-out: pERK inh. A375 IC50

Chain of Aurora B (Q96GD4 whole entry): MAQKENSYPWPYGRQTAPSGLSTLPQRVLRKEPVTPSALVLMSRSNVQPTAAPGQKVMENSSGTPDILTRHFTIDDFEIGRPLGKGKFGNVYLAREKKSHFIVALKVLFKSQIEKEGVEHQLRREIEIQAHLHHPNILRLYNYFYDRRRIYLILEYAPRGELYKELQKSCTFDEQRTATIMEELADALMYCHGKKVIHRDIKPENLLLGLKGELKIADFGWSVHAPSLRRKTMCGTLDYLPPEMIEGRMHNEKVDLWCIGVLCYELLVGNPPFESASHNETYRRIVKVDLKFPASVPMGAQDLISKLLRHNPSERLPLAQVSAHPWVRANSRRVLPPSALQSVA
Chain of Aurora A (O14965 whole entry): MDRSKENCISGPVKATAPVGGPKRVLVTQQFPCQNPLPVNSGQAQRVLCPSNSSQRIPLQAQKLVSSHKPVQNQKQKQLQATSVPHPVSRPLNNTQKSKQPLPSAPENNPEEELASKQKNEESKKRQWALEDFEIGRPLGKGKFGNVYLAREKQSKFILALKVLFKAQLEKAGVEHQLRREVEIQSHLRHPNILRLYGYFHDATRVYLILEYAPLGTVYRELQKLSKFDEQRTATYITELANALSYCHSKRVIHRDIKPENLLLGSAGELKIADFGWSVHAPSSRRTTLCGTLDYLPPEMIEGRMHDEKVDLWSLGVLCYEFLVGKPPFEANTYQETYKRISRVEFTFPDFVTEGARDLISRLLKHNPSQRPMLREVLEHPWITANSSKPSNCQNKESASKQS
T3 sequence (Q9H2X6 whole entry): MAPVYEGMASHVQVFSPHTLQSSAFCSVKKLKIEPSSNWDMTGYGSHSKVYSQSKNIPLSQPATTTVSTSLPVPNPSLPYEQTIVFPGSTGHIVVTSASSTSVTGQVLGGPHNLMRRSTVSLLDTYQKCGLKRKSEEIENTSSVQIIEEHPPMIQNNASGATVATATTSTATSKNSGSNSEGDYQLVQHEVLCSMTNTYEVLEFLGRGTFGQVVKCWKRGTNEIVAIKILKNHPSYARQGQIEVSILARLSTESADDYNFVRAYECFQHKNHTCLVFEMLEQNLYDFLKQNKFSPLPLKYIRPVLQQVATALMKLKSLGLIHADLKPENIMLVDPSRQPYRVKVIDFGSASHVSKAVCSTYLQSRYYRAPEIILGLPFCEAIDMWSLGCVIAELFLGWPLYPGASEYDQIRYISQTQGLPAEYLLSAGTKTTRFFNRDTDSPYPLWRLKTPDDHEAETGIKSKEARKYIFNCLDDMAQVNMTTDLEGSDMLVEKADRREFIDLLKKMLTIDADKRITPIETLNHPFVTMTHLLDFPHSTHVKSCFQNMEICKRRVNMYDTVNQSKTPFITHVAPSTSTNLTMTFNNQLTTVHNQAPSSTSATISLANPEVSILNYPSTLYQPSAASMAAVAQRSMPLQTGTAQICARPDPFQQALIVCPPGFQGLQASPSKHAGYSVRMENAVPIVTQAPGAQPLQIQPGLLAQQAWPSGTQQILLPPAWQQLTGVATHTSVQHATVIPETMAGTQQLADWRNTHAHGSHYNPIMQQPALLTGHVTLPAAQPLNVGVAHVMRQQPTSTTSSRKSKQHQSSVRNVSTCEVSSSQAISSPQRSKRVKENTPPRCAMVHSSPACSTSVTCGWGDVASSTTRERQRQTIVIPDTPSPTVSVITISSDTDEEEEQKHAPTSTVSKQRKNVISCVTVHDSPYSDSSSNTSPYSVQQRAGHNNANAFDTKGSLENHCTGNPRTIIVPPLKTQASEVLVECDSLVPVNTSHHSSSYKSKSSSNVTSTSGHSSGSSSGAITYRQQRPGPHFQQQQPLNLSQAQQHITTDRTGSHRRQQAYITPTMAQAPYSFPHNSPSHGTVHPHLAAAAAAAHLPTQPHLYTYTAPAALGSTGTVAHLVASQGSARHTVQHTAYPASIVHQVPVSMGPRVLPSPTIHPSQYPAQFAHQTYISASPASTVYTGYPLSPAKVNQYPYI
Chain of bRaf (P15056 whole entry): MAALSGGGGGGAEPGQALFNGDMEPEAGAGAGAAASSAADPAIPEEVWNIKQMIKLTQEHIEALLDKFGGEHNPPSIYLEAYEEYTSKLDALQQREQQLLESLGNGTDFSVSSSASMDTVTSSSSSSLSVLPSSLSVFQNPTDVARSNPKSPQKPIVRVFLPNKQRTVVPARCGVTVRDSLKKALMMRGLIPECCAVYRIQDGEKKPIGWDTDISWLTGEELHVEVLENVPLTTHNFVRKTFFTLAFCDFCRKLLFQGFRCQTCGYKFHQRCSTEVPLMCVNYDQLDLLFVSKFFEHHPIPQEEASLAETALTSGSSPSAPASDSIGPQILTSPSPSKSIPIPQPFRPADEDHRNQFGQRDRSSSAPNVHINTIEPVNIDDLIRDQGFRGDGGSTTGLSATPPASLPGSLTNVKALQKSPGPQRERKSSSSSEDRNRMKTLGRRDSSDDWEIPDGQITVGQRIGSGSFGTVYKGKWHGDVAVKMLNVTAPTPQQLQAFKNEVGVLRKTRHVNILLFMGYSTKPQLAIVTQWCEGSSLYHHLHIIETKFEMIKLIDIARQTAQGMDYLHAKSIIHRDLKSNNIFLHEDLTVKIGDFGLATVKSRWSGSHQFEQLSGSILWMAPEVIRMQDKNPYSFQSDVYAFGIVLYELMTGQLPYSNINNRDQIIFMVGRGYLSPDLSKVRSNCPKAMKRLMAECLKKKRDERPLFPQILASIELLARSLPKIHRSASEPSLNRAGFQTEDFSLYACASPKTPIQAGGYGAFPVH
T1 sequence (P04629 33-796): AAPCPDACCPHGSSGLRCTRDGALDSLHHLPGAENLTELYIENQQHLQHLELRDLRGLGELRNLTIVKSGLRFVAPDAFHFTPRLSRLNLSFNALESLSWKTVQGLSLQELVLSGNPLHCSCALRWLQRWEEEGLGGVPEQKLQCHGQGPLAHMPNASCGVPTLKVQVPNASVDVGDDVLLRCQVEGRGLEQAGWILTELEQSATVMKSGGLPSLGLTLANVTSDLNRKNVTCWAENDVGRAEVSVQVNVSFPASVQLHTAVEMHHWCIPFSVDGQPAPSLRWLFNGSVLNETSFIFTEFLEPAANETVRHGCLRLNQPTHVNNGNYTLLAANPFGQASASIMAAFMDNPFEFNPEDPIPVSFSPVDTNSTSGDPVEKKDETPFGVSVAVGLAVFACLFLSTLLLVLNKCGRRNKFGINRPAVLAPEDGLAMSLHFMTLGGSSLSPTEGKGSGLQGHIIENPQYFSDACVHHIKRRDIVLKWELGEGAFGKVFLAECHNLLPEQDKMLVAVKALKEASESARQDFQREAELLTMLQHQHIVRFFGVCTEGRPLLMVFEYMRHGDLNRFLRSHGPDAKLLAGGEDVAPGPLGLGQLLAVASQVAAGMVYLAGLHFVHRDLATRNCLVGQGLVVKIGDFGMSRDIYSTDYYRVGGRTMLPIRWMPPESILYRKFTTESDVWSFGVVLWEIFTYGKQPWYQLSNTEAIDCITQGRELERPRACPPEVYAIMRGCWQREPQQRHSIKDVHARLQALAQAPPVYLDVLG
Chain of cRaf (P04049 whole entry): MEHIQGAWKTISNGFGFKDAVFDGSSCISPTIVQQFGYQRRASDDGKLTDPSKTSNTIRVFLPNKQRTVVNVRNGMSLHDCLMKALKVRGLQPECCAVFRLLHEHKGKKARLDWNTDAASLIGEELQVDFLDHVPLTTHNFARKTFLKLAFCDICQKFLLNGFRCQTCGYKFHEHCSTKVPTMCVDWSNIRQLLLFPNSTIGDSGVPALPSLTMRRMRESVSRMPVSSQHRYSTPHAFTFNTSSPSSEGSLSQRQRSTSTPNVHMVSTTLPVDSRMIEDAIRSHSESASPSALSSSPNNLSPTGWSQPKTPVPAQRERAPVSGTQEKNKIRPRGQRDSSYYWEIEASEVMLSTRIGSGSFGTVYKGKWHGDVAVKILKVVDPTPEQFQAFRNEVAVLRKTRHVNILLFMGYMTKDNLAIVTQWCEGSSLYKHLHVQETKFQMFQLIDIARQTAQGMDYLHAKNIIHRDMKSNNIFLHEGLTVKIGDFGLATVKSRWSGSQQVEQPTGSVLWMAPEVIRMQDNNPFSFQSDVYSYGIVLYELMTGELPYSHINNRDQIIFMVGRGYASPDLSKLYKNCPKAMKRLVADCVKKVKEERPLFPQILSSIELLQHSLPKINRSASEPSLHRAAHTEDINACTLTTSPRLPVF
T2 sequence (Q9UEE5 whole entry): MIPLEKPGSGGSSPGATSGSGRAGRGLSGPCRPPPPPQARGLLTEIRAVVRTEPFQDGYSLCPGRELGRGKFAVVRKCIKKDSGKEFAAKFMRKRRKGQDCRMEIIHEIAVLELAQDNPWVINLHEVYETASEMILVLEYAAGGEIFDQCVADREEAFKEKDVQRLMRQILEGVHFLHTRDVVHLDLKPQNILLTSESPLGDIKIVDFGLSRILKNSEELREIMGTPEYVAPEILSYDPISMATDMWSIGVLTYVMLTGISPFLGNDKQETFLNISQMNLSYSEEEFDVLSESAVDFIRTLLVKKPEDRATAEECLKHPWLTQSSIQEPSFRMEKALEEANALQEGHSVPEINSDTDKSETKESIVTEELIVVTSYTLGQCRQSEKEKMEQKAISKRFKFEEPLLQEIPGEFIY

Work on `CCN1CCN(Cc2ccc(Nc3ncc(F)c(-c4cc(F)c5nc(C)n(C(C)C)c5c4)n3)nc2)CC1` [LY2835219, [5-(4-Ethyl-piperazin-1-ylmethyl)-pyridin-2-yl]-[5-fluoro-4-(7-fluoro-3-isopropyl-2-methyl-3H-benzoimidazol-5-yl)-pyrimidin-2-yl]-amine] yielded an IC50 (pRb (pSer780) colo-205) of roughly 0.1 µM, an IC50 (TRKA) of 1.03 µM and an IC50 (PLK3) greater than 20 µM. For the same compound, the IC50 (Aurora A) was greater than 20 µM, the “activity against Aurora A” value (Aurora A) was “Complete lack of activity” and the IC50 (Aurora B) was greater than 20 µM. The “activity against Aurora B” value (Aurora B) was “Complete lack of activity”, the IC50 (pERK HCT116) was greater than 20 µM and the “minimally efficacious dose for tumor growth inhibition” value [1] was 12.5 mg/kg. The IC50 (DRAK1) was 0.659 µM, the IC50 (cRaf) was greater than 20 µM and the IC50 (bRaf) was 6.33 µM. The “mean maximum steady state plasma concentration” value [2] was 562 nM, the IC50 (HIPK2) was 0.031 µM and the “histopathologic evaluation of intestinal tissue (jejunum, ileum, cecum)” value ([3]; days 41 and 69) was “no significant changes in intestinal tissue”. The hematologic changes ([3]; not dose-limiting) was “decreases in red cell mass and moderately reduced lymphocyte count”, the 2N cell population (U2OS cells; 2.2 µM) was 56% and the S cell population (U2OS cells; 2.2 µM) was 6%. For the same compound, the 2N cell population (U2OS cells; 6.6 µM) was 44%, the S cell population (U2OS cells; 6.6 µM) was 7% and the 4N cell population (colo-205 cells; 2.2 µM) was 16%. The S cell population (colo-205 cells; 2.2 µM) was 0%, the 2N cell population (colo-205 cells; 6.6 µM) was 75% and the “G1 arrest in Rb-deficient cells” value [4] was “no such effect”. For the same compound, the IC50 (pERK A375) was greater than 20 µM.
